Source: patent publication US11459327B1, “Cycloalkyl and hetero-cycloalkyl inhibitors, preparation methods therefor, and use thereof” (Suzhou Zelgen Biopharmaceuticals Co., Ltd., priority 2019, dated 2022)

Assays:
[1] = tested on: NCI-H358(KRAS^G12C mutation) cells; assay: Cell assay of antiproliferative activity (Celltiter-Glo, 5 days) against NCI-H358 cells; format: cell-based; settings: 5 days incubation
How it was run: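 Cells plated overnight, then given a 10-point compound series (stock dilutions 50 μM to 0.003 μM, 100 nL added per well) and grown 5 days. Luminescence read after 10 min shaking at room temperature. IC50 from curve fitting.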

[2] = Pharmacokinetics test evaluation in rats, plasma concentration by LC/MS/MS; format: in vivo; settings: male SD rats, 15 mg/kg by gavage; for T1/2 / Tmax / AUC / Cmax: n = 4, mean; for AUC / Cmax: rat, plasma, po
Experimental: Male SD rats, with a body weight of about 220 g, were given 15 mg/kg solution of the compound of the invention or the control compound by gavage after overnight fasting [10% […] (captisol) and 50 mM sodium citrate (pH 5) as vehicle]. Blood samples were collected at 0.5, 1.0, 2.0, 4.0, 6.0, 8.0, 12.0 and 24 hours after the compound was administrated, and the concentrations of the compound or the control compound in plasma were determined by LC/MS/MS.
The plasma concentration-time curves of Examples 13 and 14 and control compounds were shown in FIG. 1, and the pharmacokinetics parameters were shown in Table 2: […]

[3] = tested on: A549(KRAS^G12S mutation) cells; assay: Cell assay of antiproliferative activity (Celltiter-Glo, 5 days) against A549 cells; format: cell-based; settings: Homo sapiens, 120 h, 5 days incubation
Experimental: Cell assay of antiproliferative activity of compounds against NCI-H358(KRAS^G12C mutation) and A549(KRAS^G12S mutation) cells.
40 μl phosphate buffer was added to the outer wells of the 384 microplate, and 40 μl cell suspension to be tested was added to the other wells. Then the microplate was incubated in a carbon dioxide incubator overnight.
The compounds to be tested were gradiently diluted, each compound was performed 10 concentration gradients (diluted from 50 μM to 0.003 μM) and added 100 nL to the corresponding wells in the microplate. After addition, 40 μl of phosphate buffer was added to each well in rows A and P and columns 1 and 24, and then the microplate was incubated in a carbon dioxide incubator for 5 days.
20 μL of Promega Celltiter-Glo reagent was added to each well of the microplate, and then the luminescence signal was stabilized by oscillating at room temperature for 10 min. Then PekinElmer Envision multi-label analyzer was used to read.
Finally, GraphPad Prism software was used to calculate the IC50 value of the compound and the fitting curve was drawn.
Anti-proliferative activity of the compounds of the present invention against NCI-H358(KRAS^G12C mutation) and A549(KRAS^G12S mutation) cells were shown in Table 1.

MIA PaCa-2 tumor cells = settings: MIA PaCa-2 CDX, nude rats
Experimental: Pharmacodynamic Testing Evaluation of Anti-Tumor Activity (MIA PaCa-2 CDX Tumor Model)
100 uL suspension containing 5×10^6 MIA PaCa-2 tumor cells was subcutaneously injected into the right posterior abdomen of nude rats. The health of the rat was monitored daily. Measurements were started when the tumor grew palpable. The tumor volume calculation formula was adopted: 0.5×L×W^2, where L and W represent tumor length and width, respectively. The tumor grew to ˜200 mm^3, the rats were randomly divided into groups. Rats were intragastrically administrated the corresponding dose (7.5 mg/Kg) of the compound's CMC-Na suspension every day, and their general status was monitored at the same time. The tumor was measured 3 times a week, and the weight was measured twice a week.

NCI-H358 tumor cells = assay: Pharmacodynamic testing evaluation of anti-tumor activity (H358 CDX tumor model); format: in vivo; settings: nude rats
Experimental: Pharmacodynamic Testing Evaluation of Anti-Tumor Activity (11358 CDX Tumor Model)
100 uL suspension containing 5×10^6 NCI-H358 tumor cells was subcutaneously injected into the right posterior back of nude rats. The health of the rat was monitored daily. Measurements were started when the tumor grew palpable.

[4] = 7.5 mg/Kg intragastrically every day, Day 20
[5] = 30 mg/Kg intragastrically every day, Day 20

| Compound | IC50 ([1]; Homo sapiens, NCI-H358, 120 h) | T1/2 [2] | Tmax [2] | bioavailability ([2]; conclusion in words) | metabolic properties in rats compared with the control compound ([2]; higher Cmax and higher plasma exposure AUC) | AUC [2] | Cmax [2] | IC50 [3] | IC50 [1] | % TGI (MIA PaCa-2 tumor cells; [4]) | % Tumor Growth (MIA PaCa-2 tumor cells; [4]) | TV Day 0 (MIA PaCa-2 tumor cells; Day 0 (at grouping), 7.5 mg/Kg intragastrically every day) | TV Day 20 (MIA PaCa-2 tumor cells; Day 20, 7.5 mg/Kg intragastrically every day) | % TGI (NCI-H358 tumor cells; [5]) | % Tumor Growth (NCI-H358 tumor cells; [5]) | TV Day 0 (NCI-H358 tumor cells; Day 0 (at grouping), 30 mg/Kg intragastrically every day) | TV Day 20 (NCI-H358 tumor cells; Day 20, 30 mg/Kg intragastrically every day) |
| --- | --- | --- | --- | --- | --- | --- | --- | --- | --- | --- | --- | --- | --- | --- | --- | --- | --- |
| C=C(F)C(=O)N1CCN(c2nc(OCC3(CN(C)C)CC3)nc3c2CCN(c2cccc4cccc(Cl)c24)C3)CC1CC#N (centres unmarked) [Example 13] | 55 nM | 2.33 h | 4.0 h | excellent bioavailability | better metabolic properties in rats | 1400 ng·h/mL | 163 ng/mL | 6000 nM |  |  |  |  |  |  |  |  |  |
| C=C(F)C(=O)N1CCN(c2nc(OCCN(C)C3CCC3)nc3c2CCN(c2cccc4ccc(F)c(Cl)c24)C3)CC1CC#N (centres unmarked) [Example 14, 2-(4-(7-(8-chloro-7-fluoronaphthalen-1-yl)-2-(2-(cyclobutyl(methyl)amino)ethoxy)-5,6,7,8-tetrahydropyrido[3,4-d]pyrimidin-4-yl)-1-(2-fluoroacroloyl)piperazin-2-yl) acetonitrile] | 90 nM | 1.69 h | 1.25 h |  |  | 392 ng·h/mL | 85.1 ng/mL | 6200 nM |  |  |  |  |  |  |  |  |  |
| C=C(F)C(=O)N1CCN(c2nc(OCC3(CN(C)C)CC3)nc3c2CCN(c2cccc4cccc(Cl)c24)C3)C[C@@H]1CC#N [Example 27] |  |  |  |  |  |  |  |  | 14 nM | 66.6% | 145.4% | 197 mm^3 | 518 mm^3 | 89.8% | 182% | 209 mm^3 | 471 mm^3 |
